# Reference: patent US8063071B2 (GlaxoSmithKline, LLC, priority 2007, dated 2011)
# Where a name gives a salt, the structure may show the parent alone.
# Assays:
# [1] = system: human monocyte stimulated cytokine production (TNF-α); assay: Monocyte assay (LPS-stimulated TNF-α production); assay type: cell-based; settings: for inhibition at 0.3 µM: read-out: inhibition at 300 nM in the monocyte assay; for IC50: 24 h, 200 ng/mL LPS, TNF-α by ELISA
# How it was run: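 TNF-α release was measured by ELISA after 24 hrs at 37 C. Cells were stimulated with 200 ng/mL E. coli LPS, with compound added 30 minutes beforehand (0.1% DMSO vehicle). Cells were Ficoll/MACS-isolated CD14+ human monocytes adhered at 1×10^6 cells/mL, and viability was checked by trypan blue.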
# [2] = molecular target: T1, Recombinant human IKKβ (residues 1-737) (Homo sapiens, UniProt O14920); assay: IKK2 assay (TR-FRET); assay type: biochemical; settings: ATP 1 μM final, read-out: pIC50 against IKK2 (converted)
# T1 construct: Recombinant human IKKβ (residues 1-737); GST (C); made in house
# T1 sequence (O14920 1-737): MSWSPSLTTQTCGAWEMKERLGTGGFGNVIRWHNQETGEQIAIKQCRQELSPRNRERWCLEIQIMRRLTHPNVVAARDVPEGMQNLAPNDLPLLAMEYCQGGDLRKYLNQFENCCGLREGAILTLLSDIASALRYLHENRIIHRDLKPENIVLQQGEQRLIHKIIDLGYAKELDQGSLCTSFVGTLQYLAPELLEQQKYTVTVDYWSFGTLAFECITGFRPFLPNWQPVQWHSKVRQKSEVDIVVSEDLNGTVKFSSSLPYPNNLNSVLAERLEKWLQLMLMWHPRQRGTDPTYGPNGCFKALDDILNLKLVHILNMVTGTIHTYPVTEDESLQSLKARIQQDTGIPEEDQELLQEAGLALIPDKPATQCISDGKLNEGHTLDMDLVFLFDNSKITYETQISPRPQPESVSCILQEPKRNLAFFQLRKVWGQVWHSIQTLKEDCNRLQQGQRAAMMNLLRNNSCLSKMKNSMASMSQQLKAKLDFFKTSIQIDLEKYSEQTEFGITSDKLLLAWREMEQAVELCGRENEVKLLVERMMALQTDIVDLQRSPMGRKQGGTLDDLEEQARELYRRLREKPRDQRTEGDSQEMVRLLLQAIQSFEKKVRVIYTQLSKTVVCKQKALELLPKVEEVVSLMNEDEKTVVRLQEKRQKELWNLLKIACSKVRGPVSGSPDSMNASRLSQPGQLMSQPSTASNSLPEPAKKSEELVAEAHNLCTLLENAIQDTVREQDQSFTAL
# How it was run: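 TR-FRET readout (665 nm over 620 nm Eu reference) of GST-IB Ser32/36 phosphorylation after 60 min detection. Reaction: 1 μM ATP, 25 nM substrate, 0.5-5 nM GST-fused IKKβ 1-737 from baculovirus, pH 7.4 HEPES buffer, 1.7% DMSO, 15 min room temperature, EDTA-terminated.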
SMILES,inhibition at 0.3 µM [1] [%],IC50 [2] [µM],IC50 [1] [nM]
"CCCN(CCC)CCc1cccc(-c2cc(C(N)=O)c3[nH]cc(C4CCN(S(=O)(=O)CC)CC4)c3c2)c1 [Example 349, 5-{3-[2-(dipropylamino)ethyl]phenyl}-3-[1-(ethylsulfonyl)-4-piperidinyl]-1H-indole-7-carboxamide trifluoroacetate]",0 to 60,≤ 10,
"CCS(=O)(=O)N1CCC(c2c[nH]c3c(C(N)=O)cc(-c4cccc(CNCCn5nc(C)cc5C)c4)cc23)CC1 [Example 350, 5-[3-({[2-(3,5-dimethyl-1H-pyrazol-1-yl)ethyl]amino}methyl)phenyl]-3-[1-(ethylsulfonyl)-4-piperidinyl]-1H-indole-7-carboxamide trifluoroacetate]",0 to 60,≤ 10,
"CCS(=O)(=O)N1CCC(c2c[nH]c3c(C(N)=O)cc(-c4csc(CN5CCOCC5)n4)cc23)CC1 [Example 351, 3-[1-(ethylsulfonyl)-4-piperidinyl]-5-[2-(4-morpholinylmethyl)-1,3-thiazol-4-yl]-1H-indole-7-carboxamide trifluoroacetate]",0 to 60,≤ 10,
"CCS(=O)(=O)N1CCC(c2c[nH]c3c(C(N)=O)cc(-c4csc(CNCC(C)C)n4)cc23)CC1 [Example 352, 3-[1-(ethylsulfonyl)-4-piperidinyl]-5-(2-{[(2-methylpropyl)amino]methyl}-1,3-thiazol-4-yl)-1H-indole-7-carboxamide trifluoroacetate]",0 to 60,≤ 10,
"CCS(=O)(=O)N1CCC(c2c[nH]c3c(C(N)=O)cc(-c4csc(CN5CCCC5)n4)cc23)CC1 [Example 353, 3-[1-(ethylsulfonyl)-4-piperidinyl]-5-[2-(1-pyrrolidinylmethyl)-1,3-thiazol-4-yl]-1H-indole-7-carboxamide]",0 to 60,≤ 10,≤ 1500
"CCS(=O)(=O)N1CCC(c2c[nH]c3c(C(N)=O)cc(-c4csc(CN(C)C)n4)cc23)CC1 [Example 355, 5-{2-[(dimethylamino)methyl]-1,3-thiazol-4-yl}-3-[1-(ethylsulfonyl)-4-piperidinyl]-1H-indole-7-carboxamide trifluoroacetate]",0 to 60,≤ 10,
"CCN(C)Cc1nc(-c2cc(C(N)=O)c3[nH]cc(C4CCN(S(=O)(=O)CC)CC4)c3c2)cs1 [Example 356, 5-(2-{[ethyl(methyl)amino]methyl}-1,3-thiazol-4-yl)-3-[1-(ethylsulfonyl)-4-piperidinyl]-1H-indole-7-carboxamide trifluoroacetate]",,≤ 10,≤ 1500
"CCS(=O)(=O)N1CCC(c2c[nH]c3c(C(N)=O)cc(-c4cc(C#N)cc(CNCC(C)C)c4)cc23)CC1 [Example 357, 5-(3-cyano-5-{[(2-methylpropyl)amino]methyl}phenyl)-3-[1-(ethylsulfonyl)-4-piperidinyl]-1H-indole-7-carboxamide trifluoroacetate]",,≤ 10,≤ 1500
"CCS(=O)(=O)N1CCC(c2c[nH]c3c(C(N)=O)cc(-c4cc(C#N)cc(CN(C)C)c4)cc23)CC1 [Example 358, 5-{3-cyano-5-[(dimethylamino)methyl]phenyl}-3-[1-(ethylsulfonyl)-4-piperidinyl]-1H-indole-7-carboxamide trifluoroacetate]",,≤ 10,≤ 1500
"CCS(=O)(=O)N1CCC(c2c[nH]c3c(C(N)=O)cc(-c4cccc(CNC(=O)c5ccc(F)cc5)c4)cc23)CC1 [Example 360, 3-[1-(ethylsulfonyl)-4-piperidinyl]-5-[3-({[(4-fluorophenyl)carbonyl]amino}methyl)phenyl]-1H-indole-7-carboxamide trifluoroacetate]",,≤ 10,> 1000
"CCS(=O)(=O)N1CCC(c2c[nH]c3c(C(N)=O)cc(-c4cccc(CNC(=O)c5ccco5)c4)cc23)CC1 [Example 361, 3-[1-(ethylsulfonyl)-4-piperidinyl]-5-(3-{[(2-furanylcarbonyl)amino]methyl}phenyl)-1H-indole-7-carboxamide trifluoroacetate]",,≤ 10,≤ 1500
"CCS(=O)(=O)N1CCC(c2c[nH]c3c(C(N)=O)cc(-c4cccc(CNC(=O)C5CCCC5)c4)cc23)CC1 [Example 362, 5-(3-{[(cyclopentylcarbonyl)amino]methyl}phenyl)-3-[1-(ethylsulfonyl)-4-piperidinyl]-1H-indole-7-carboxamide trifluoroacetate]",,≤ 10,> 1000
"CCS(=O)(=O)N1CCC(c2c[nH]c3c(C(N)=O)cc(-c4cccc(CNC(=O)c5cc6ccccc6s5)c4)cc23)CC1 [Example 363, 5-(3-{[(1-benzothien-2-ylcarbonyl)amino]methyl}phenyl)-3-[1-(ethylsulfonyl)-4-piperidinyl]-1H-indole-7-carboxamide]",,≤ 10,> 1000
"CCS(=O)(=O)N1CCC(c2c[nH]c3c(C(N)=O)cc(-c4cccc(CNC(=O)C5CCN(C(C)=O)CC5)c4)cc23)CC1 [Example 364, 5-[3-({[(1-acetyl-4-piperidinyl)carbonyl]amino}methyl)phenyl]-3-[1-(ethylsulfonyl)-4-piperidinyl]-1H-indole-7-carboxamide]",,≤ 10,≤ 1500
"CCS(=O)(=O)N1CCC(c2c[nH]c3c(C(N)=O)cc(-c4cccc(CNC(=O)c5cccn5C)c4)cc23)CC1 [Example 365, 3-[1-(ethylsulfonyl)-4-piperidinyl]-5-[3-({[(1-methyl-1H-pyrrol-2-yl)carbonyl]amino}methyl)phenyl]-1H-indole-7-carboxamide]",,≤ 10,> 1000
"CCS(=O)(=O)N1CCC(c2c[nH]c3c(C(N)=O)cc(-c4cccc(CNC(=O)Cc5cccs5)c4)cc23)CC1 [Example 366, 3-[1-(ethylsulfonyl)-4-piperidinyl]-5-(3-{[(2-thienylacetyl)amino]methyl}phenyl)-1H-indole-7-carboxamide]",,≤ 10,≤ 1500
"CCS(=O)(=O)N1CCC(c2c[nH]c3c(C(N)=O)cc(-c4cccc(CNC(=O)C5CCC5)c4)cc23)CC1 [Example 367, 5-(3-{[(cyclobutylcarbonyl)amino]methyl}phenyl)-3-[1-(ethylsulfonyl)-4-piperidinyl]-1H-indole-7-carboxamide]",,≤ 10,≤ 1500
"CCS(=O)(=O)N1CCC(c2c[nH]c3c(C(N)=O)cc(-c4cccc(CNC(=O)C5CC5)c4)cc23)CC1 [Example 368, 5-(3-{[(cyclopropylcarbonyl)amino]methyl}phenyl)-3-[1-(ethylsulfonyl)-4-piperidinyl]-1H-indole-7-carboxamide]",,≤ 10,≤ 1500
"CCS(=O)(=O)N1CCC(c2c[nH]c3c(C(N)=O)cc(-c4cccc(CNS(=O)(=O)C5CC5)c4)cc23)CC1 [Example 369, 5-(3-{[(cyclopropylsulfonyl)amino]methyl}phenyl)-3-[1-(ethylsulfonyl)-4-piperidinyl]-1H-indole-7-carboxamide]",,≤ 10,≤ 1500
"CCS(=O)(=O)N1CCC(c2c[nH]c3c(C(N)=O)cc(-c4cccc(CNS(=O)(=O)c5cc(Cl)ccc5Cl)c4)cc23)CC1 [Example 370, 5-[3-({[(2,5-dichlorophenyl)sulfonyl]amino}methyl)phenyl]-3-[1-(ethylsulfonyl)-4-piperidinyl]-1H-indole-7-carboxamide]",,≤ 10,≤ 1500
"CCS(=O)(=O)N1CCC(c2c[nH]c3c(C(N)=O)cc(-c4cccc(CNS(=O)(=O)c5ccc(Br)cc5)c4)cc23)CC1 [Example 371, 5-[3-({[(4-bromophenyl)sulfonyl]amino}methyl)phenyl]-3-[1-(ethylsulfonyl)-4-piperidinyl]-1H-indole-7-carboxamide]",,≤ 10,≤ 1500
"CCS(=O)(=O)N1CCC(c2c[nH]c3c(C(N)=O)cc(-c4cccc(CNS(=O)(=O)c5ccc(Cl)cc5)c4)cc23)CC1 [Example 372, 5-[3-({[(4-chlorophenyl)sulfonyl]amino}methyl)phenyl]-3-[1-(ethylsulfonyl)-4-piperidinyl]-1H-indole-7-carboxamide]",,≤ 10,≤ 1500
"CCS(=O)(=O)N1CCC(c2c[nH]c3c(C(N)=O)cc(-c4cccc(CNS(=O)(=O)c5cccc(F)c5)c4)cc23)CC1 [Example 373, 3-[1-(ethylsulfonyl)-4-piperidinyl]-5-[3-({[(3-fluorophenyl)sulfonyl]amino}methyl)phenyl]-1H-indole-7-carboxamide]",,≤ 10,≤ 1500
